Assays:
[1] = biological target: Thymidine kinase 2, mitochondrial (rat); experiment: Noncompetitive inhibition against rat mitochondrial thymidine kinase
[2] = biological target: Thymidine kinase 2, mitochondrial (rat); experiment: Non-competitive inhibition against rat mitochondrial thymidine kinase
[3] = biological target: Thymidine kinase 2, mitochondrial (rat); experiment: Competitive inhibition against rat Mitochondrial thymidine kinase
[4] = biological target: Thymidine kinase 2, mitochondrial (rat); experiment: as above; remark: listed apart in the source

Nc1nc(=O)n([C@H]2C[C@H](O)[C@@H](CO)O2)cc1I [4-Amino-1-(4-hydroxy-5-hydroxymethyl-tetrahydro-furan-2-yl)-5-iodo-1H-pyrimidin-2-one] was tested, and the Ki [1] was 3500 µM.

Work on Cc1cn(C2CC(O)C(CSCCCC(=O)O)O2)c(=O)[nH]c1=O (stereo not given) [4-[3-Hydroxy-5-(5-methyl-2,4-dioxo-3,4-dihydro-2H-pyrimidin-1-yl)-tetrahydro-furan-2-ylmethylsulfanyl]-butyric acid] yielded a Ki [2] of 8500 µM.

For Cc1cn([C@H]2C[C@H](O)[C@@H](CO)O2)c(=O)nc1N [4-Amino-1-(4-hydroxy-5-hydroxymethyl-tetrahydro-furan-2-yl)-5-methyl-1H-pyrimidin-2-one], the Ki [3] was 1300 µM.

CCO[C@H]1C[C@H](n2cc(C)c(=O)[nH]c2=O)O[C@@H]1CO [1-(4-Ethoxy-5-hydroxymethyl-tetrahydro-furan-2-yl)-5-methyl-1H-pyrimidine-2,4-dione] showed a Ki [4] of 56 µM.

C/C=C/c1cn([C@H]2C[C@H](O)[C@@H](CO)O2)c(=O)[nH]c1=O [1-(4-Hydroxy-5-hydroxymethyl-tetrahydro-furan-2-yl)-5-propenyl-1H-pyrimidine-2,4-dione(BVDU)] gave a Ki [2] of 510 µM.
